Assays:
[1] = test system: actin system in MDA-MB-231 cells; assay: Actin immunofluorescence in MDA-MB-231 cells; type: cell-based, human; conditions: MDA-MB-231, 24 h; compounds at their IC50 values, LA 0.1 µM
Experimental: In order to determine whether the lead compounds 3 and 4 may effectively regulate the actin system, we employed both the immunofluorescence and in vitro direct enzymatic assays. […] As negative and positive controls, we used the only vehicle (DMSO) and latrunculin A (LA) at a concentration of 0.1 µM, respectively. After processing, the cells were observed under a fluorescent microscope, (see experimental section for the details). […] Moreover, the latter looked brighter and stocked in the cytoplasm in dot-like structures or thicker fibers. Again, the MDA-MB-231 cells, under exposure to compounds 3 and 4, lost their shape (Figure 4, compounds 3 and 4, panels B), as we observed under LA treatment, and with a very similar arrangement of the actin network.
The cells were plated and further processed, as previously indicated. Specifically, the rabbit anti-β-Actin (Santa Cruz Biotechnology, Dallas, TX, USA), diluted 1:100 in bovine serum albumin (BSA) 2%, was used as primary antibody and incubated overnight at 4 °C. The secondary antibody, Alexa Fluor® 488 conjugate goat-anti-rabbit, was diluted 1:500 and incubated for 2 h at 37 °C. DAPI (4′,6-diamidino-2-phenylindole, Sigma Aldrich, Milan, Italy) 0.2 μg/mL was used for nuclei staining. A fluorescence microscope (Leica DM 6000) was utilized for fluorescence detection (40× magnification). LAS-X software allowed acquiring and processing all the fluorescence images, which are representative of three separate experiments.

[2] = target: T1, labeled rabbit muscle actin (Oryctolagus cuniculus, UniProt P68135); assay: In vitro actin polymerization assay; type: biochemical; conditions: 5 µM, 1 h, room temperature; vehicle plateau about 25,000 RFU
T1 construct: fluorescent label (chemical); purchased Abcam; host or cells: rabbit muscle
Source text: With the aim to confirm the immunofluorescence results and substantiate whether compounds 3 and 4 could inhibit the actin polymerization mechanism and/or boost the F-actin depolymerization, we employed a fluorescent-labeled purified rabbit actin. LA and cytochalasin B (CB) were used as positive controls for both the polymerization inhibition and F-actin subunits dissociation, or only the polymerization inhibition, respectively. In the negative control reaction (only vehicle), actin monomers undergo a normal polymerization, as visible in Figure 5, panel A. The reaction curve rises in approximately 5 min to a value of about 25,000 RFU (plateau) which remains almost unvaried until the end of the experiment. Contrariwise, the two reference molecules, i.e., LA and CB, used at the concentration of 5 µM, braked the actin polymerization, mostly LA rather than CB, under the adopted experimental conditions, and the LA curve dropped until a value of about 8000 RFU at the reaction end.
(§1) An Actin Polymerization/Depolymerization Assay Kit, purchased from Abcam, was employed to assess the ability of compounds 3 and 4 to interfere with the actin polymerization and depolymerization processes. To perform the essays, the manufacturer’s instructions were followed with some modifications. In particular, polymerization assay was carried out incubating in a white 96-well plate the reconstituted actin with supplemented Buffer G, compounds 3 and 4 and then Buffer P was added in order to induce actin polymerization. For the Actin Depolymerization Assay, the actin polymerization was first induced, incubating supplemented Buffers P and G at room temperature for one hour. Then, compounds 3 and 4 were added at a concentration of 5 μM. Latrunculin A (LA) and Cytochalasin B (CB) were utilized as positive control at a concentration of 5 μM. For both the assays, the assemblage of the actin filaments was defined by measuring the fluorescence (Ex/Em: 365/410 nm) in kinetic mode for 1 h at room temperature in a microplate reader.

[3] = target: T2, F-actin (labeled rabbit muscle actin) (Oryctolagus cuniculus, UniProt P68135); assay: In vitro F-actin depolymerization assay; type: biochemical; conditions: 5 µM added after 1 h polymerization
T2 construct: fluorescent label (chemical); purchased Abcam; host or cells: rabbit muscle
Experimental: Moreover, we performed the F-actin depolymerization assay to verify whether compounds 3 and 4 could induce the actin depolymerization as well as the LA does (Figure 5, panel B). For this purpose, we started the actin polymerization for one hour under the same experimental conditions used previously. Then, we added the compounds or the reference molecules at the concentration of 5 µM and monitored the reactions for an additional hour. […] The addition of CB was not able to produce the same effect of LA. […] Contrarily, both the compounds were able to induce an important depolymerizing effect on the F-actin, most evident in the first 7 min after the exposure. Particularly, compounds 3 and 4 produced final values of approximately 14,000 and 12,000 RFU, respectively. […] This combined effect leads to a disorganization of the intracellular actin network.
as §1

MCF-10A cells = assay: MTT assay, MCF-10A normal cell viability; type: cell-based, human; conditions: Homo sapiens, MCF-10A, 72 h, non-malignant breast epithelial cells, mean ± standard deviation
Experimental: (§2) The inhibition of cancer cell growth exerted by the five considered compounds (1–5) has been evaluated in vitro against two models of breast cancer, namely the estrogen receptor positive (ER+) MCF-7 and the triple negative MDA-MB-231 human breast cancer cells (lacking ER, PR, and HER-2/Neu amplification), together with the normal counterpart, namely the non-malignant breast epithelial cells MCF-10A. […] Moreover, no effects were recorded against the MCF-7 cells, at least until the concentration of 100 μM. […] Thus, the two lead compounds were chosen for subsequent studies aiming at individuating the molecular mechanisms underlying the observed anticancer activity.
(§3) MTT assays (Sigma Aldrich (St.Louis, MO, USA)) were employed to evaluate the in vitro anticancer activities of all the studied compounds, as previously described. The compounds were tested at different concentrations (0.1-1-10-25-50-100 μM) for 72 h. The IC50 values were calculated from the percent (%) of control using GraphPad Prism 9 (GraphPad Software, La Jolla, CA, USA).

MDA-MB-231 cells = assay: MTT assay, MDA-MB-231 cell viability; type: cell-based; conditions: Homo sapiens, 72 h, mean ± standard deviation
Experimental: as §2, §3

MCF-7 cells = assay: MTT assay, MCF-7 cell viability; type: cell-based; conditions: Homo sapiens, MCF7, 72 h, mean ± standard deviation
Experimental: as §3

IC50 (MDA-MB-231 cells)	IC50 (MCF-7 cells)	SMILES	Effect on actin organization (immunofluorescence) [1]	Actin polymerization, final fluorescence value of reaction curve [2]	F-actin depolymerization, final fluorescence value of reaction curve ([3]; monitored 1 h, vehicle 20,000 RFU)	F-actin depolymerizing effect [3]	IC50 (MCF-10A cells)
43.5 ± 1.21 µM	> 100 µM	Cc1ccc(C)c2c1c1cc(Br)ccc1n2C(=O)OC(C)(C)C [Compound 1]					> 100 µM
8.19 ± 0.26 µM	> 100 µM	COc1ccc2c(c1)c1c(C)ccc(C)c1n2C(=O)OC(C)(C)C [Compound 2]					89.16 ± 0.47 µM
6.59 ± 0.68 µM	> 100 µM	Cc1ccc(C)c2c1[nH]c1ccc(O)cc12 [Compound 5, 5,8-Dimethyl-9H-carbazol-3-ol]					> 100 µM

Second part, the molecule before the results:

SMILES	IC50 (MDA-MB-231 cells)	IC50 (MCF-7 cells)	Effect on actin organization (immunofluorescence) [1]	Actin polymerization, final fluorescence value of reaction curve [2]	F-actin depolymerization, final fluorescence value of reaction curve ([3]; monitored 1 h, vehicle 20,000 RFU)	F-actin depolymerizing effect [3]	IC50 (MCF-10A cells)
C/C1=C/C(=O)O[C@@H]2C[C@@H](CC[C@H](C)/C=C\C=C\CC1)O[C@@](O)([C@@H]1CSC(=O)N1)C2 [LA, Latrunculin A, reference compound]			the cells underwent an important shape change	about 8000 RFU	about 8000 RFU		
C=C1[C@@H](C)[C@H]2[C@H](Cc3ccccc3)NC(=O)[C@]23OC(=O)/C=C/[C@H](O)CCC[C@@H](C)C/C=C/[C@H]3[C@@H]1O [CB, Cytochalasin B, reference compound]				approximately 13,000 RFU		does not induce the F-actin depolymerization	
Cc1c2ccncc2c(C)c2c1[nH]c1ccccc12 [Ellipticine, reference compound]	1.92 ± 0.38 µM						1.12 ± 0.51 µM

Reference: paper PMC10051477, “5,8-Dimethyl-9H-carbazole Derivatives Blocking hTopo I Activity and Actin Dynamics” (Pharmaceuticals, 2023)
